From PubChem BioAssay (NCI)
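Growth conditions: 96-well plates. Treatment: test compound, 48 hours, 5 concentrations. Analysis: linear interpolation between bracketing concentrations; unreached endpoints set to highest concentration. TGI denotes the concentration required for complete inhibition of growth.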

Columns and labels:
Test in all cases: NCI tumour cell line growth inhibition, 48 h
786-0 renal = test system: 786-0 renal
A498 renal = test system: A498 renal
A549 NSCLC = test system: A549 NSCLC
ACHN renal = test system: ACHN renal
BT-549 breast = test system: BT-549 breast
CAKI-1 renal = test system: CAKI-1 renal
CCRF-CEM leukemia = test system: CCRF-CEM leukemia
COLO 205 colon = test system: COLO 205 colon
DU-145 prostate = test system: DU-145 prostate
EKVX NSCLC = test system: EKVX NSCLC
HCC-2998 colon = test system: HCC-2998 colon
HCT-116 colon = test system: HCT-116 colon
HCT-15 colon = test system: HCT-15 colon
HL-60(TB) leukemia = test system: HL-60(TB) leukemia
HOP-62 NSCLC = test system: HOP-62 NSCLC
HOP-92 NSCLC = test system: HOP-92 NSCLC
HS 578T breast = test system: HS 578T breast
HT29 colon = test system: HT29 colon
IGROV1 ovarian = test system: IGROV1 ovarian
K-562 leukemia = test system: K-562 leukemia
KM12 colon = test system: KM12 colon
LOX IMVI melanoma = test system: LOX IMVI melanoma
M14 melanoma = test system: M14 melanoma
MALME-3M melanoma = test system: MALME-3M melanoma
MCF7 breast = test system: MCF7 breast
MDA-MB-231 breast = test system: MDA-MB-231 breast
MDA-MB-435 = test system: MDA-MB-435
MDA-N = test system: MDA-N
MOLT-4 leukemia = test system: MOLT-4 leukemia
NCI-H226 lung = test system: NCI-H226 lung
NCI-H23 lung = test system: NCI-H23 lung
NCI-H460 lung = test system: NCI-H460 lung
NCI-H522 lung = test system: NCI-H522 lung
NCI/ADR-RES ovarian = test system: NCI/ADR-RES ovarian
OVCAR-3 ovarian = test system: OVCAR-3 ovarian
OVCAR-4 ovarian = test system: OVCAR-4 ovarian
OVCAR-5 ovarian = test system: OVCAR-5 ovarian
OVCAR-8 ovarian = test system: OVCAR-8 ovarian
PC-3 prostate = test system: PC-3 prostate
RPMI-8226 leukemia = test system: RPMI-8226 leukemia
RXF 393 renal = test system: RXF 393 renal
SF-268 CNS = test system: SF-268 CNS
SF-295 CNS = test system: SF-295 CNS
SF-539 CNS = test system: SF-539 CNS
SK-MEL-2 melanoma = test system: SK-MEL-2 melanoma
SK-MEL-28 melanoma = test system: SK-MEL-28 melanoma
SK-MEL-5 melanoma = test system: SK-MEL-5 melanoma
SK-OV-3 ovarian = test system: SK-OV-3 ovarian
SN12C renal = test system: SN12C renal
SNB-19 CNS = test system: SNB-19 CNS
SR leukemia = test system: SR leukemia
SW-620 colon = test system: SW-620 colon
T-47D breast = test system: T-47D breast
TK-10 renal = test system: TK-10 renal
U251 CNS = test system: U251 CNS
UACC-257 melanoma = test system: UACC-257 melanoma
UACC-62 melanoma = test system: UACC-62 melanoma
UO-31 renal = test system: UO-31 renal
SNB-75 CNS = test system: SNB-75 CNS

Measured: TGI

O=C(N[C@H]1CCC[C@H]1C(=O)Nc1ccc(C(F)(F)F)cc1)OCc1ccccc1
> 100 µM: 786-0 renal | A498 renal | A549 NSCLC | ACHN renal | BT-549 breast | CAKI-1 renal | CCRF-CEM leukemia | COLO 205 colon | DU-145 prostate | EKVX NSCLC | HCC-2998 colon | HCT-116 colon | HCT-15 colon | HL-60(TB) leukemia | HOP-62 NSCLC | HOP-92 NSCLC | HS 578T breast | HT29 colon | IGROV1 ovarian | K-562 leukemia | KM12 colon | LOX IMVI melanoma | M14 melanoma | MALME-3M melanoma | MCF7 breast | MDA-MB-231 breast | MDA-MB-435 | MDA-N | MOLT-4 leukemia | NCI-H226 lung | NCI-H23 lung | NCI-H460 lung | NCI-H522 lung | NCI/ADR-RES ovarian | OVCAR-3 ovarian | OVCAR-4 ovarian | OVCAR-5 ovarian | OVCAR-8 ovarian | PC-3 prostate | RPMI-8226 leukemia | RXF 393 renal | SF-268 CNS | SF-295 CNS | SF-539 CNS | SK-MEL-2 melanoma | SK-MEL-28 melanoma | SK-MEL-5 melanoma | SK-OV-3 ovarian | SN12C renal | SNB-19 CNS | SR leukemia | SW-620 colon | T-47D breast | TK-10 renal | U251 CNS | UACC-257 melanoma | UACC-62 melanoma | UO-31 renal

COc1ccc(C2C(C#N)=C(S)N(C3OC(CO)C(O)C(O)C3O)C(C)=C2C(C)=O)cc1 (stereo unspecified)
97.1 µM: T-47D breast
> 100 µM: 786-0 renal | A498 renal | A549 NSCLC | ACHN renal | BT-549 breast | CCRF-CEM leukemia | COLO 205 colon | DU-145 prostate | HCC-2998 colon | HCT-116 colon | HCT-15 colon | HL-60(TB) leukemia | HOP-62 NSCLC | HOP-92 NSCLC | HS 578T breast | HT29 colon | IGROV1 ovarian | K-562 leukemia | KM12 colon | LOX IMVI melanoma | M14 melanoma | MALME-3M melanoma | MCF7 breast | MDA-MB-231 breast | MDA-MB-435 | MDA-N | MOLT-4 leukemia | NCI-H226 lung | NCI-H23 lung | NCI-H460 lung | NCI-H522 lung | NCI/ADR-RES ovarian | OVCAR-3 ovarian | OVCAR-4 ovarian | OVCAR-5 ovarian | OVCAR-8 ovarian | PC-3 prostate | RPMI-8226 leukemia | RXF 393 renal | SF-268 CNS | SF-295 CNS | SF-539 CNS | SK-MEL-2 melanoma | SK-MEL-28 melanoma | SK-MEL-5 melanoma | SN12C renal | SNB-19 CNS | SNB-75 CNS | SR leukemia | SW-620 colon | TK-10 renal | U251 CNS | UACC-257 melanoma | UACC-62 melanoma | UO-31 renal

OC1(c2ccc(Cl)cc2)c2c(c3ccccc3c3ccccc23)C2=NCCN21 (stereo unspecified)
41.7 µM: MCF7 breast
33.7 µM: BT-549 breast
41.4 µM: NCI-H460 lung
28.8 µM: ACHN renal
34.9 µM: SK-MEL-28 melanoma
30.8 µM: U251 CNS
24.6 µM: UO-31 renal
62.1 µM: OVCAR-3 ovarian
18.2 µM: IGROV1 ovarian
46 µM: OVCAR-5 ovarian
49.4 µM: HOP-92 NSCLC
24.9 µM: SF-268 CNS
6.85 µM: HCC-2998 colon
25.7 µM: HCT-116 colon
32 µM: UACC-62 melanoma
44.7 µM: SN12C renal
24.7 µM: RXF 393 renal
15.2 µM: 786-0 renal
35.5 µM: HT29 colon
11 µM: OVCAR-4 ovarian
49.6 µM: PC-3 prostate
28.1 µM: SF-295 CNS
> 100 µM: CCRF-CEM leukemia | COLO 205 colon | HCT-15 colon | HL-60(TB) leukemia | K-562 leukemia | MDA-MB-435 | MOLT-4 leukemia | RPMI-8226 leukemia | SK-MEL-5 melanoma | T-47D breast
73.8 µM: LOX IMVI melanoma
31.3 µM: SK-OV-3 ovarian
49.7 µM: UACC-257 melanoma
51.1 µM: MDA-N
27.8 µM: SNB-19 CNS
25.5 µM: NCI/ADR-RES ovarian
7.52 µM: SNB-75 CNS
16.8 µM: TK-10 renal
59 µM: A549 NSCLC
35.4 µM: EKVX NSCLC
45.6 µM: DU-145 prostate
24.2 µM: HOP-62 NSCLC
18.6 µM: HS 578T breast
43.7 µM: A498 renal
30.5 µM: SR leukemia
28.5 µM: OVCAR-8 ovarian
26.8 µM: MDA-MB-231 breast
24.5 µM: NCI-H23 lung | SF-539 CNS
40.1 µM: MALME-3M melanoma
32.8 µM: SW-620 colon
27 µM: M14 melanoma
36.7 µM: SK-MEL-2 melanoma
47.8 µM: KM12 colon
68.8 µM: CAKI-1 renal
